Measurements taken from patent US4224442A, “7-Ureido acetamido substituted cephalosporin antibiotics” (Eli Lilly and Company, priority 1975, dated 1980).
In brackets after ≈: the same amount, converted by molar mass.

Legend:
Staphylococcus aureus = experiment: standard gear agar dilution method, MIC; assay type: cell-based
From the text: In the standard gear agar dilution method, the MIC values for the above test compounds A through E against Staphylococcus aureus were as follows: A, 2; B, 1; C, 0.5; D, 2; and E, 0.5 mcg./m1.

Serratia marcescens = experiment: Gradient Plate in vitro method, MIC; assay type: cell-based; settings: read-out: Minimum Inhibitory Concentration
From the text: (§1) The values in the table are the minimum inhibitory concentrations (MIC) for the test compounds against the indicated microorganisms. The MIC values were obtained in the Gradient Plate in vitro method for determining antibiotic activity.

Escherichia coli [1] = experiment: Gradient Plate in vitro method, MIC; assay type: cell-based; settings: read-out: Minimum Inhibitory Concentration
From the text: as §1

V84 = experiment: Gradient Plate in vitro method, MIC; assay type: cell-based, penicillin resistant Staphyloccus; settings: V84, penicillin resistant Staphylococcus, read-out: Minimum Inhibitory Concentration
From the text: as §1, with “The antibiotic activity of the cephalosporin compounds of the formula I is illustrated by the data presented in Table I for representative compounds. The values” for “The values”
(§2) Minimum Inhibitory Concentration (mcg./ml.)
(§3) ^1 Test organisms V41, V32 and V84 are penicillin resistant
(§4) Staphyloccus, X400 is a methicillin resistant Staphylococcus.

V41 = experiment: Gradient Plate in vitro method, MIC; assay type: cell-based, penicillin resistant Staphyloccus; settings: V41, penicillin resistant Staphylococcus, read-out: Minimum Inhibitory Concentration
From the text: as §1, with “The antibiotic activity of the cephalosporin compounds of the formula I is illustrated by the data presented in Table I for representative compounds. The values” for “The values”
as §2, §3, §4

V32 = experiment: Gradient Plate in vitro method, MIC; assay type: cell-based, penicillin resistant Staphyloccus; settings: V32, penicillin resistant Staphylococcus, read-out: Minimum Inhibitory Concentration
From the text: as §1, with “The antibiotic activity of the cephalosporin compounds of the formula I is illustrated by the data presented in Table I for representative compounds. The values” for “The values”
as §2, §3, §4

Pseudomonas aeruginosa = experiment: Gradient Plate in vitro method, MIC; assay type: cell-based; settings: read-out: Minimum Inhibitory Concentration
From the text: as §1, with “The antibiotic activity of the cephalosporin compounds of the formula I is illustrated by the data presented in Table I for representative compounds. The values” for “The values”
as §2

Aerobacter aerogenes = experiment: Gradient Plate in vitro method, MIC; assay type: cell-based; settings: Klebsiella aerogenes, read-out: Minimum Inhibitory Concentration
From the text: as §1, with “The antibiotic activity of the cephalosporin compounds of the formula I is illustrated by the data presented in Table I for representative compounds. The values” for “The values”
as §2

Salmonella heidelberg = experiment: Gradient Plate in vitro method, MIC; assay type: cell-based; settings: Salmonella enterica, read-out: Minimum Inhibitory Concentration
From the text: as §1, with “The antibiotic activity of the cephalosporin compounds of the formula I is illustrated by the data presented in Table I for representative compounds. The values” for “The values”
as §2

Klebsiella pneumoniae = experiment: Gradient Plate in vitro method, MIC; assay type: cell-based; settings: read-out: Minimum Inhibitory Concentration
From the text: as §1, with “The antibiotic activity of the cephalosporin compounds of the formula I is illustrated by the data presented in Table I for representative compounds. The values” for “The values”
as §2

Shigella sp. = experiment: Gradient Plate in vitro method, MIC; assay type: cell-based; settings: read-out: Minimum Inhibitory Concentration
From the text: as §1, with “The antibiotic activity of the cephalosporin compounds of the formula I is illustrated by the data presented in Table I for representative compounds. The values” for “The values”
as §2

X400 = experiment: Gradient Plate in vitro method, MIC; assay type: cell-based; settings: X400, methicillin resistant Staphylococcus, read-out: Minimum Inhibitory Concentration
From the text: as §1, with “The antibiotic activity of the cephalosporin compounds of the formula I is illustrated by the data presented in Table I for representative compounds. The values” for “The values”
as §2, §3, §4

Escherichia coli [2] = experiment: in vivo effective dose in experimental infections in mice; settings: ip, E. coli infection in mice
From the text: (§5) The in vivo effective dose […] in mg./kg. for representative antibiotics of the formula I has been determined in experimental infections in mice. Table II lists the ED50 dose vs. Streptococcus pyogenes and Escherichia coli infections. In the table, the antibiotics are identified with the R", R', and R1 -R3 terms of Formula I. |Test Compound ED50 (mg/kg × 2) i.p.

Streptococcus pyogenes = experiment: as above; settings: ip, S. pyogenes infection in mice
From the text: as §5

[3] = Electrometric titration in 66 percent DMF; assay type: physicochemical; settings: 66% dmf

Compound | MIC (Staphylococcus aureus) [µg/mL] | MIC (Serratia marcescens) [µg/mL] | MIC (Escherichia coli [1]) [µg/mL] | MIC (V84) [µg/mL] | MIC (V41) [µg/mL] | MIC (V32) [µg/mL] | MIC (Pseudomonas aeruginosa) [µg/mL] | MIC (Aerobacter aerogenes) [µg/mL] | MIC (Salmonella heidelberg) [µg/mL] | MIC (Klebsiella pneumoniae) [µg/mL] | MIC (Shigella sp.) [µg/mL] | MIC (X400) [µg/mL] | ED50 (Escherichia coli [2]) [mg/kg] | ED50 (Streptococcus pyogenes) [mg/kg] | pKa ([3]; first of two titratable groups) | pKa ([3]; second of two titratable groups)
Cn1nnnc1SCC1=C(C(=O)O)N2C(=O)C(NC(=O)C(NC(=O)N3CCNC3=O)c3ccccc3)[C@H]2SC1 (stereo partly drawn) [Test Compound D, 7-[α-(imidazolidine-2-one-1-ylcarbonylamino)-α-phenylacetamido]-3-(1-methyl-1H-tetrazole-5-ylthiomethyl)-3-cephem-4-carboxylic acid] | 2 (≈ 3.49 µM) | 70 (≈ 122 µM) | 12 (≈ 20.9 µM) | 0.9 (≈ 1.57 µM) | 6 (≈ 10.5 µM) | 7 (≈ 12.2 µM) | 90 (≈ 157 µM) | 12 (≈ 20.9 µM) | 6 (≈ 10.5 µM) | 7 (≈ 12.2 µM) | 7 (≈ 12.2 µM) | > 20 | – | – | – | –
Cn1nnnc1SCC1=C(C(=O)O)N2C(=O)C(NC(=O)C(NC(=O)NC(N)=O)c3ccccc3)C2SC1 (stereo not shown) [Test Compound H] | – | > 200 | 16 (≈ 29.2 µM) | 1 (≈ 1.83 µM) | 2.5 (≈ 4.57 µM) | 4 (≈ 7.3 µM) | 60 (≈ 110 µM) | 15 (≈ 27.4 µM) | 12 (≈ 21.9 µM) | 35 (≈ 63.9 µM) | 9.5 (≈ 17.3 µM) | > 20 | < 72 | 0.7 | – | –
CC(=O)OCC1=C(C(=O)O)N2C(=O)C(NC(=O)C(NC(=O)N3CCNC3=O)c3ccccc3)[C@H]2SC1 (stereo partly drawn) [Test Compound E, 7-[α-(imidazolidine-2-one-1-ylcarbonylamino)-α-phenylacetamido]-3-acetoxymethyl-3-cephem-4-carboxylic acid] | 0.5 (≈ 0.966 µM) | 42 (≈ 81.2 µM) | 18 (≈ 34.8 µM) | 0.4 (≈ 0.773 µM) | 2 (≈ 3.86 µM) | 5 (≈ 9.66 µM) | 24 (≈ 46.4 µM) | 10 (≈ 19.3 µM) | 11 (≈ 21.3 µM) | 12 (≈ 23.2 µM) | 10 (≈ 19.3 µM) | > 20 | – | – | – | –
CNC(=O)N(C)C(=O)NC(C(=O)NC1C(=O)N2C(C(=O)O)=C(CSc3nnnn3C)CSC12)c1cccs1 (stereo not drawn) [Test Compound K, 7-[α-(3-methylcarbamoyl-3-methyl-1-ureido)-α-(2-thienyl)acetamido]-3-(1-methyl-1H-tetrazole-5-ylthiomethyl)-3-cephem-4-carboxylic acid] | – | 19.5 (≈ 33.5 µM) | 2.5 (≈ 4.3 µM) | 3 (≈ 5.16 µM) | 3 (≈ 5.16 µM) | 3 (≈ 5.16 µM) | 21.5 (≈ 37 µM) | 1 (≈ 1.72 µM) | 10 (≈ 17.2 µM) | 0.9 (≈ 1.55 µM) | 1 (≈ 1.72 µM) | > 20 | – | – | – | –
CNC(=O)N(C)C(=O)NC(C(=O)NC1C(=O)N2C(C(=O)O)=C(CSc3nnnn3C)CSC12)c1ccccc1 (stereo not drawn) [Test Compound F, 7-[α-(3-methylcarbamoyl-3-methyl-1-ureido)-α-phenylacetamido]-3-(1-methyl-1H-tetrazole-5-ylthiomethyl)-3-cephem-4-carboxylic acid] | – | 22 (≈ 38.2 µM) | 4 (≈ 6.95 µM) | 4 (≈ 6.95 µM) | 5 (≈ 8.69 µM) | 5 (≈ 8.69 µM) | 22 (≈ 38.2 µM) | 3 (≈ 5.21 µM) | 3 (≈ 5.21 µM) | 1 (≈ 1.74 µM) | 3 (≈ 5.21 µM) | > 20 | – | – | – | –
CNC(=O)NC(=O)NC(C(=O)NC1C(=O)N2C(C(=O)O)=C(CSc3nnc(C)s3)CSC12)c1ccc(O)cc1 (stereo not drawn) [Example 14, 7-[α-(3-methylcarbamoyl-1-ureido)-α-(4-hydroxyphenyl)acetamido]-3-(5-methyl-1,3,4-thiadiazole-2-ylthiomethyl)-3-cephem-4-carboxylic acid] | – | – | – | – | – | – | – | – | – | – | – | – | < 72 | 0.7 | – | –
CNC(=O)N(C)C(=O)NC(C(=O)NC1C(=O)N2C(C(=O)O)=C(COC(C)=O)CSC12)c1ccccc1 (stereo not drawn) [Test Compound C, 7-[α-(3-methylcarbamoyl-3-methyl-1-ureido)-α-phenylacetamido]-3-acetoxymethyl-3-cephem-4-carboxylic acid] | 0.5 (≈ 0.962 µM) | 80 (≈ 154 µM) | 11 (≈ 21.2 µM) | 0.5 (≈ 0.962 µM) | 1 (≈ 1.92 µM) | 1 (≈ 1.92 µM) | 80 (≈ 154 µM) | 14 (≈ 26.9 µM) | 13 (≈ 25 µM) | 14 (≈ 26.9 µM) | 7 (≈ 13.5 µM) | > 20 | < 7.2 | < 7.2 | – | –
CNC(=O)N(C)C(=O)NC(C(=O)NC1C(=O)N2C(C(=O)O)=C(CSc3nnc(C)s3)CSC12)c1ccc(O)cc1 (stereo not drawn) [Test Compound B, 7-[α-(3-methylcarbamoyl-3-methyl-1-ureido)-α-(4-hydroxyphenyl)acetamido]-3-(5-methyl-1,3,4-thiadiazole-2-ylthiomethyl)-3-cephem-4-carboxylic acid] | 1 (≈ 1.65 µM) | 19 (≈ 31.3 µM) | 4 (≈ 6.58 µM) | 0.6 (≈ 0.987 µM) | 8 (≈ 13.2 µM) | 10 (≈ 16.5 µM) | 28 (≈ 46.1 µM) | 4 (≈ 6.58 µM) | 2 (≈ 3.29 µM) | 4 (≈ 6.58 µM) | 3 (≈ 4.94 µM) | > 20 | – | – | 4.8 | 12.2
CNC(=O)NC(=O)NC(C(=O)NC1C(=O)N2C(C(=O)O)=C(CSc3nnc(C)s3)CSC12)c1ccc(O)cc1 (stereo not drawn) [Test Compound L, Sodium 7-[α-(3-methylcarbamoyl-1-ureido)-α-(4-hydroxyphenyl)acetamido]-3-(5-methyl-1,3,4-thiadiazole-2-ylthiomethyl)3-cephem-4-carboxylate] | – | > 200 | 7.5 | 0.6 | 6.5 | 7.5 | 19.5 | 15.5 | 6.5 | 16 | 5.5 | > 20 | – | – | – | –
CNC(=O)N(C)C(=O)NC(C(=O)NC1C(=O)N2C(C(=O)O)=C(CSc3nnnn3C)CSC12)c1ccc(O)cc1 (stereo not drawn) [Test Compound A, 7-[α-(3-methylcarbamoyl-3-methyl-1-ureido)-α-(4-hydroxyphenyl)acetamido]-3-(1-methyl-1H-tetrazole-5-ylthiomethyl)-3-cephem-4-carboxylic acid] | 2 (≈ 3.38 µM) | 8 (≈ 13.5 µM) | 1 (≈ 1.69 µM) | 0.6 (≈ 1.01 µM) | 4 (≈ 6.76 µM) | 4.8 (≈ 8.11 µM) | 18 (≈ 30.4 µM) | 1 (≈ 1.69 µM) | 1 (≈ 1.69 µM) | 3.5 (≈ 5.92 µM) | 1 (≈ 1.69 µM) | > 20 | 72 | 0.7 | – | –
Cn1nnnc1SCC1=C(C(=O)O)N2C(=O)C(NC(=O)C(NC(=O)NC(=O)Nc3ccccc3)c3ccccc3)C2SC1 (stereo not drawn) [Test Compound M, 7-[α-(3-phenylcarbamoyl-1-ureido)-α-phenylacetamido]-3-(1-methyl-1H-tetrazole-5-ylthiomethyl)-3-cephem-4-carboxylic acid] | – | 24 (≈ 38.5 µM) | 10 (≈ 16 µM) | 0.5 (≈ 0.802 µM) | 0.6 (≈ 0.962 µM) | 0.5 (≈ 0.802 µM) | 19.5 (≈ 31.3 µM) | 15.5 (≈ 24.9 µM) | 7.8 (≈ 12.5 µM) | 0.6 (≈ 0.962 µM) | 4 (≈ 6.41 µM) | 10 (≈ 16 µM) | – | – | – | –
CNC(=O)NC(=O)NC(C(=O)NC1C(=O)N2C(C(=O)O)=C(CSc3nnnn3C)CSC12)c1ccccc1 (stereo not drawn) [Test Compound J, 7-[α-(3-methylcarbamoyl-1-ureido)-α-phenylacetamido)-3-(1-methyl-1H-tetrazole-5-ylthiomethyl)-3-cephem-4-carboxylic acid] | – | 130 (≈ 231 µM) | 7.5 (≈ 13.4 µM) | 5 (≈ 8.9 µM) | 2 (≈ 3.56 µM) | 3 (≈ 5.34 µM) | 22.3 (≈ 39.7 µM) | 4.3 (≈ 7.66 µM) | 4.3 (≈ 7.66 µM) | 10 (≈ 17.8 µM) | 4 (≈ 7.12 µM) | > 20 | 72 | 0.7 | – | –
CNC(=O)NC(=O)NC(C(=O)NC1C(=O)N2C(C(=O)O)=C(CSc3nnnn3C)CSC12)c1cccs1 (stereo not drawn) [Test Compound I, 7-[α-(3-methylcarbamoyl-1-ureido)-α-(2-thienyl)-acetamido]-3-(1-methyl-1H-tetrazole-5-ylthiomethyl)-3-cephem-4-carboxylic acid] | – | 35 (≈ 61.7 µM) | 5.5 (≈ 9.69 µM) | 0.6 (≈ 1.06 µM) | 0.6 (≈ 1.06 µM) | 0.7 (≈ 1.23 µM) | 16 (≈ 28.2 µM) | 4.3 (≈ 7.58 µM) | 4.5 (≈ 7.93 µM) | 6.8 (≈ 12 µM) | 3 (≈ 5.29 µM) | 13 (≈ 22.9 µM) | < 72 | < 7.2 | – | –
